Experimental data: patent US20150216865A1, “METHODS OF TREATING A BRUTON'S TYROSINE KINASE DISEASE OR DISORDER” (Celgene Avilomics Research, Inc., priority 2012, published 2015)
Marks after values point to notes of the source that are not given here.

Key:
IL-6 = assay: Inflammatory chemokine and cytokine analysis in CIA mice, IL-6; format: in vivo, mouse
From the text: Inflammatory Chemokine and Cytokine Analysis: At the termination of the CIA study, mice were sacrificed and blood was harvested via cardiac punch using EDTA as an anticoagulant. […] Levels of various mouse cytokines in plasma were quantified using Bioplex® Suspension Array System according to manufacturer's instruction (BioRad, mTNFa (171-G5023M), mIL-6 (171-G5007M), mKC (171-G5018M), mIFNg (171-G5017M), mIL-17 (Z60-00006Z2), mIL-1β (171-G5002M), mMCP-1 (171-G5019M).

[1] = test system: collagen-induced arthritis Dba1 mouse model; assay: Established collagen induced arthritis model (clinical score, histopathology, body weight); format: in vivo; conditions: for reduction of clinical signs of disease (inhibition of disease): established CIA
Procedure: Established Collagen Induced Arthritis Model: Experiments were carried out at Bolder Biopath, Boulder, Colo. All experiments were carried out in compliance with regulations of the Institutional Animal Care and Use Committee and were conducted in accordance with principles and procedures dictated by the highest standards of humane animal care. […] On study days 25-27, onset of arthritis occurred, and mice were randomized into treatment groups (10/treatment group, 4/group for normal). […] Randomization into each group was done after swelling was obviously established in at least one paw, and attempts were made to assure approximately equal mean scores across the groups at the time of enrollment. […] Treatment continued daily (QD at 24 h intervals) through arthritis day 14.

Btk = target: T1, Btk (Mus musculus, UniProt P35991); assay: Btk occupancy in spleen lysates of CIA mice; format: in vivo
T1 construct: from tissue; host or cells: mouse spleen
Procedure: Spleen Homogenization: Spleens were harvested from mice, frozen immediately in liquid nitrogen and stored at −80° C. To generate spleen lysates, each spleen was sliced in half and lysed using a Precellys 24 Bead Homogenizer in 500 μL of BioRad Bio-Plex Lysis Buffer plus protease inhibitors. Supernatant was transferred to a fresh microfuge tube and stored frozen at −80° C. until analysis.
Btk Target Site Occupancy ELISA: An ELISA method for the detection of free uninhibited Btk in mouse, rat, dog, monkey, and human lysates was developed at Celgene Avilomics Research and a validation of this method in human B cell lysate was performed by a CLIA Certified laboratory (Cambridge Biomedical Laboratories, Boston, Mass.) The parameters that were assessed included: accuracy, linearity, dilution, precision (intra and inter-assay), stability, reference range, freeze-thaw cycles, reportable range, specificity, sensitivity, and carryover. […] Standards and samples were transferred to a streptavidin-coated 96-well ELISA plate and mixed while shaking for 1 h at room temperature. […] After wash, goat α-mouse-HRP (1:5000 dilution in PBS+0.05% Tween-20+0.5% BSA) was added and incubated for 1 h at room temperature. The ELISA was developed with addition of tetramethyl benzidine (TMB) followed by Stop Solution and read at OD 450 nm.
Established Collagen Induced Arthritis Model: Experiments were carried out at Bolder Biopath, Boulder, Colo. All experiments were carried out in compliance with regulations of the Institutional Animal Care and Use Committee and were conducted in accordance with principles and procedures dictated by the highest standards of humane animal care. Dba1 mice were injected at the base of the tail with 150 μL of Freund's Complete Adjuvant (Sigma) containing bovine type II collagen (Elastin Products, Owensville, Mo.) (2 mg/ml) on day 0 and again on day 21. […] Randomization into each group was done after swelling was obviously established in at least one paw, and attempts were made to assure approximately equal mean scores across the groups at the time of enrollment. […] Treatment continued daily (QD at 24 h intervals) through arthritis day 14. […] Clinical scores were assessed for each of the paws on study arthritis days 1-15 using the following scoring system: 0=normal, 1=one hind or fore paw joint affected or minimal diffuse erythema and swelling, 2=two hind or fore paw joints affected or mild diffuse erythema and swelling, 3=three hind or fore paw joints affected or moderate diffuse erythema and swelling, 4=marked diffuse erythema and swelling or =four digit joints affected, 5=severe diffuse erythema and severe swelling entire paw, unable to flex digits.

male NOD mice = assay: NOD mouse model, lachrymal gland histopathology; format: in vivo; conditions: 20 weeks of age
From the text: Histopathology. Samples of lachrymal gland and salivary glands from all animals were fixed for Haematoxylin & Eosin histological analysis. Sections were inspected blind by a qualified histopathologist and scored for signs of pathology according to a semi-quantitative scoring system. This system is based on the mean number of inflammatory foci comprising 50 or more mononuclear inflammatory cells per objective field. The ratio of infiltrated to normal glandular tissue was expressed on a five point scale.
Lachrymal Gland Histopathology. Lachrymal glands from Control BALB/c mice (n=12 mice) and vehicle-treated NOD mice (n=9 mice) were examined and scored, in order to validate the model. For each animal, one section from the right lachrymal gland and one section from the left lachrymal gland were prepared. Sections were examined and scored for two criteria:
(i) Focus Score. The mean number of inflammatory foci comprising ≧50 mononuclear inflammatory cells per ×10 objective field was counted. Five such fields were assessed (where possible) to derive this index and these are selected to contain the maximum number of such foci. Where the overall area of the tissue section was less than five fields, the number of ×10 objective fields was recorded and used to determine the focus score. (ii) Area Score. […]

T1 sequence (P35991 whole entry): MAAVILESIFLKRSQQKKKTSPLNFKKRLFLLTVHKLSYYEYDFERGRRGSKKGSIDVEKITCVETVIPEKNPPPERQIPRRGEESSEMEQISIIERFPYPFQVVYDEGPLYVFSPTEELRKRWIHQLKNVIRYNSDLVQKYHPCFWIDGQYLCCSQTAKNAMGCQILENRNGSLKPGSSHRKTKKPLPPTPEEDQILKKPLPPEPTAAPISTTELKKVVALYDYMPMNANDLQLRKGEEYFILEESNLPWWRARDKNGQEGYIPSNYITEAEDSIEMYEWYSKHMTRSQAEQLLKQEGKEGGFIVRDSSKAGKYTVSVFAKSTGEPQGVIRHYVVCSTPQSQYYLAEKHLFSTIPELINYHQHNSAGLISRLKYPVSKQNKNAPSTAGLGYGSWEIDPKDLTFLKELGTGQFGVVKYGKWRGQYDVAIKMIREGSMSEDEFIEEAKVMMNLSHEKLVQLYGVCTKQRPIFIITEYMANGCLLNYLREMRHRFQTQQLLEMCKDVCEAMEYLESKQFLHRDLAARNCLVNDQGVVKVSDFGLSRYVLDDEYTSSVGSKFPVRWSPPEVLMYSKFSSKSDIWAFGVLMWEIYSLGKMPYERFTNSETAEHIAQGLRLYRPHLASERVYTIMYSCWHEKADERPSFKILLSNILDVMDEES

## C=CC(=O)Nc1cccc(Nc2nc(Nc3ccc(OCCOC)cc3)ncc2F)c1 [Compound 1 besylate, N-(3-(5-fluoro-2-(4-(2-methoxyethoxyl)phenylamino)pyrimidin-4-ylamino)phenyl)acrylamide besylate]
IL-6; 3 mg/kg
  IL-6 mean: 15.4 pg/mL
IL-6; 10 mg/kg
  IL-6 mean: 9.1* pg/mL
IL-6; 30 mg/lkg
  IL-6 mean: 10.5* pg/mL
[1]; 3 mg/kg PO QD
  reduction of clinical signs of disease (inhibition of disease): 50%
[1]; 10 mg/kg PO QD
  reduction of clinical signs of disease (inhibition of disease): 85%
[1]; 30 mg/kg
  inhibition of histopathologic signs of disease (six joints): 96%
[1]; 30 mg/kg PO QD
  reduction of clinical signs of disease (inhibition of disease): 95%
[1]; all three dose levels (3, 10, 30 mg/kg)
  body weight loss associated with severity of disease: prevented the loss in body weight
Btk; 30 mg/kg, 2 hours after last dose, besylate
  Btk occupancy in spleen: 95%
Btk; 24 hours after a 10 mg/kg dose
  drug-free Btk protein re-synthesized, % of pre-dose levels: approximately 60%
Btk; 24 hours after the 3 mg dose
  Btk occupancy in spleen: 19%
Btk; 24 hours, dose level 10 mg
  Btk occupancy in spleen: > 40%
Btk; 24 hours, dose level 30 mg
  Btk occupancy in spleen: > 40%
Btk; mouse, 3 mg/kg, 2 hours after last dose
  receptor occupancy at 3 mg/kg: 34%
Btk; mouse, 10 mg/kg, 2 hours after last dose
  receptor occupancy at 10 mg/kg: 84%
Btk; mouse, 30 mg/kg, 2 hours after last dose
  receptor occupancy at 30 mg/kg: 97%
Male NOD mice
  lachrymal gland Area Score (proportion of infiltrated glandular tissue) vs vehicle: did not reduce
  lachrymal gland Focus Score (number of inflammatory foci) vs vehicle: did not reduce
